Each structure is given as a SMILES string.

The text below walks through data of PMC9413508, “PI3K/mTOR Dual Inhibitor Pictilisib Stably Binds to Site I of Human Serum Albumin as Observed by Computer Simulation, Multispectroscopic, and Microscopic Studies” (Molecules, 2022).

This experiment concerns the target T1, human serum albumin (HSA) (Homo sapiens, UniProt P02768).
T1 construct: gene ALB; fatty-acid-free HSA, commercial (Sigma-Aldrich); mature protein, 585 residues, monomer
Nature of the experiment: intrinsic Trp fluorescence quenching, double-log plot. Format: binding. The settings on record: 298 K, pH 7.4 PBS 10 mM, HSA 2 μM; λex 280 nm; n = 1.14; site I (subdomain IIA). The method, then: intrinsic Trp fluorescence quenching, double-log plot on human serum albumin (HSA) | the association constant (Ka) between GDC-0941 and HSA was calculated

T1 sequence (P02768 25-609): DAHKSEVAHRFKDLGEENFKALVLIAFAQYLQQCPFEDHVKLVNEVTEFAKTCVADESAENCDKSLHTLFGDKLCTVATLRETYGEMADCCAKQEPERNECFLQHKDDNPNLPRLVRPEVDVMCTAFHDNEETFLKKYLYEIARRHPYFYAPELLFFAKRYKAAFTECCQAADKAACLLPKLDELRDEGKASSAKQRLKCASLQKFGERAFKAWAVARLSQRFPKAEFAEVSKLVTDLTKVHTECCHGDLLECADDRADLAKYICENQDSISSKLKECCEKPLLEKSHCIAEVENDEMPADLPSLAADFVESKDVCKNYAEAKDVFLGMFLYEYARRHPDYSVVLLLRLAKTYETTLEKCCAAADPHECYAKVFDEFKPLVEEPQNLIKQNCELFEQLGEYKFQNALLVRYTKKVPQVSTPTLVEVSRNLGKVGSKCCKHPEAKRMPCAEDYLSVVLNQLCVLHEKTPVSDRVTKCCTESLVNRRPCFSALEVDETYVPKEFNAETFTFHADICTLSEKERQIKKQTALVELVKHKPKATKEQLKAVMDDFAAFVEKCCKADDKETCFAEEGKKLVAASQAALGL

For `CS(=O)(=O)N1CCN(Cc2cc3nc(-c4cccc5[nH]ncc45)nc(N4CCOCC4)c3s2)CC1` [GDC-0941], the “Ka (×10^5 M^-1)” value is 4.09 ×10^5 M^−1.
